Results taken from patent US8779157B2, “MGLUR4 allosteric potentiators, compositions, and methods of treating neurological dysfunction” (Vanderbilt University, priority 2009, dated 2014).

Biological target: mGluR4 (UniProt Q14833)
Test: mGluR4 potentiation assay (fluorescence, Ca2+ or thallium/GIRK readout; EC20 agonist)
Format: cell-based, human / rat
Settings: half maximal effective concentration for mGluR4 potentiation; species of receptor not given
Procedure: The disclosed compounds and compositions can be evaluated for their ability to act as a potentiator of metabotropic glutamate receptor activity, in particular mGluR4 activity, by any suitable known methodology known in the art. For example, Chinese Hamster Ovary (CHO) cells transfected with human mGluR4 or HEK cells co-transfected with rat mGluR4 and the G-protein regulated Inwardly Rectifying Potassium channel (GIRK) were plated in clear bottom assay plates for assay in a Hamamatsu FDSS Fluorometric Plate Reader. The cells were loaded with either a Ca2+-sensitive fluorescent dye or the thallium responsive dye and the plates were washed and placed into a suitable kinetic plate reader. For human mGluR4 assays, a fluorescence baseline was established for 3-5 seconds, the disclosed compounds were then added to the cells, and the response in cells was measured. Approximately two and a half minutes later, a concentration of mGluR4 orthosteric agonist (e.g. glutamate or L-AP4) eliciting approximately 20% (EC20) of the maximal agonist response was added to the cells, and the response was measured. Two minutes later, a concentration of mGluR4 agonist (e.g. glutamate or L-AP4) eliciting 80% (EC80) of the maximal agonist response was added to the cells, and the response was measured. For rat mGluR4/GIRK experiments, a baseline was established for approximately five seconds, disclosed compounds were added, and either an EC20 or EC80 concentration of agonist was added approximately two and one half minutes later. Potentiation of the agonist response of mGluR4 by the disclosed compounds was observed as an increase in response to the EC20 concentration of agonist in the presence of compound compared to the response to agonist in the absence of compound. Similarly, antagonism of the agonist response of mGluR4 by the disclosed compounds was observed as a decrease in response to the EC80 concentration of agonist in the presence of compound compared to the response to agonist in the absence of compound.
The above described assay operated in two modes. In the first mode, a range of concentrations of the disclosed compounds are added to cells, followed by a single fixed concentration of agonist. If the compound acts as a potentiatior, an EC50 value for potentiation and a maximum extent of potentiation by the compound at this concentration of agonist is determined by non-linear curve fitting. If the compound acts as a noncompetitive antagonist, an IC50 value is determined by non-linear curve fitting. In the second mode, several fixed concentrations of the disclosed compounds are added to various wells on a plate, followed by a range in concentrations of agonist for each concentration of disclosed compound. The EC50 values for the agonist at each concentration of compound are determined by non-linear curve fitting. A decrease in the EC50 value of the agonist with increasing concentrations of the sample compound (a leftward shift of the agonist concentration-response curve) is an indication of the degree of mGluR4 potentiation at a given concentration of the sample compound. A decrease in the maximal response of the agonist with increasing concentrations of the sample compounds, with or without a rightward shift in agonist potency, is an indication of the degree of noncompetitive antagonism at mGluR4. The second mode also indicates whether the sample compounds also affect the maximum response to mGluR4 to agonists.

First: O=C(Nc1ccc(N2C(=O)C3COCCN3C2=S)c(Cl)c1)c1cccs1 (stereo not drawn) [Example 1.3.33, N-(3-Chloro-4-(1-oxo-3-thioxodihydro-1H-imidazo[5,1-c][1,4]oxazin-2(3H,8H,8aH)-yl)phenyl)thiophene-2-carboxamide]
Second: O=C(Nc1ccc(N2C(=O)C3COCCN3C2=S)c(Cl)c1)c1cccc(Cl)n1 (stereo not drawn) [Example 1.3.32, 6-Chloro N-(3-chloro-4-(1-oxo-3-thioxodihydro-1H-imidazo[5,1-c][1,4]oxazin-2(3H,8H, 8aH)-yl)phenyl)picolinamide]
The EC50 of the first is 5.7-fold higher: 8460 nM for the first, 1490 nM for the second.

`CN1C(=O)N(c2ccc(NC(=O)c3ccccn3)cc2Cl)C(=O)C12CC1CCC2C1` (stereo not drawn) [Example 1.3.54, N-(3-chloro-4-(3′-methyl-2′,5′-dioxospiro[bicyclo[2.2.1]heptane-2,4′-imidazolidin]-1′-yl)phenyl)picolinamide] and `O=C(Nc1ccc(N2C(=O)NC3(CC4CCC3C4)C2=O)c(Cl)c1)c1ccccn1` (stereo not drawn) [Example 1.3.53, N-(3-chloro-4-(2′,5′-dioxospiro[bicyclo[2.2.1]heptane-2,4′-imidazolidin]-1′-yl)phenyl)picolinamide] are within 1.5-fold of each other in EC50: 325 nM for the first, 217 nM for the second.

First: O=C(Nc1ccc(N2C(=O)C3CS(=O)(=O)CCN3C2=O)c(Cl)c1)c1ccccn1 (stereo not drawn) [Example 1.3.41, N-(3-chloro-4-(1,3-dioxodihydro-1H-imidazo[5,1-c][1,4]dioxothiazin-2(3H,8H,8aH)-yl)phenyl)picolinamide]
Second: O=C(Nc1ccc(N2C(=O)C3CCCCN3C2=O)c(Cl)c1)c1ccccn1 (stereo not drawn) [Example 1.3.2, N-(3-chloro-4-(1,3-dioxotetrahydroimidazo[1,5-a]pyridin-2(1H,3H,5H)-yl)phenyl)picolinamide]
The EC50 of the first is 3.7-fold higher: 3030 nM for the first, 814 nM for the second.

Going from `C[C@@]1(Cc2ccccc2)NC(=O)N(c2ccc(NC(=O)c3ncc(F)cc3F)cc2Cl)C1=O` [Example 1.3.66, (S)-N-(4-(4-benzyl-4-methyl-2,5-dioxoimidazolidin-1-yl)-3-chlorophenyl)-3,5-difluoropicolinamide] to `C[C@@]1(Cc2ccccc2)NC(=O)N(c2ccc(NC(=O)c3ccccn3)cc2Cl)C1=O` [Example 1.3.20, (S)-N-(4-(4-benzyl-4-methyl-2,5-dioxoimidazolidin-1-yl)-3-chlorophenyl)picolinamide], the EC50 falls from 2960 nM to 604 nM (4.9-fold). The second is the more potent here.

`CC(C)[C@]1(C)NC(=O)N(c2ccc(NC(=O)c3ccccn3)cc2Cl)C1=O` [Example 1.3.59, (S)-N-(3-chloro-4-(4-isopropyl-4-methyl-2,5-dioxoimidazolidin-1-yl)phenyl)picolinamide] and `CC(C)C[C@@]1(C)NC(=O)N(c2ccc(NC(=O)c3ccccn3)cc2Cl)C1=O` [Example 1.3.17, (R)-N-(3-chloro-4-(4-isobutyl-4-methyl-2,5-dioxoimidazolidin-1-yl)phenyl)picolinamide] are the same in EC50: 1500 nM for the first, 1500 nM for the second.

First: CC12CCCCN1C(=O)N(c1ccc(NC(=O)c3ncc(F)cc3F)cc1Cl)C2=O (stereo not drawn) [Example 1.3.88, N-(3-chloro-4-(8a-methyl-1,3-dioxohexahydroimidazo[1,5-a]pyridin-2(3H)-yl)phenyl)-3,5-difluoropicolinamide]
Second: CC12CCCCN1C(=S)N(c1ccc(NC(=O)c3cccc(F)n3)cc1Cl)C2=O (stereo not drawn) [Example 1.3.98, N-(3-chloro-4-(8a-methyl-1-oxo-3-thioxohexahydroimidazo[1,5-a]pyridin-2(3H)-yl)phenyl)-6-fluoropicolinamide]
The EC50 of the first is 2.3-fold higher: 1100 nM for the first, 470 nM for the second.

`O=C(Nc1ccc(N2C(=O)C3CCCCN3C2=S)c(Cl)c1)c1cccc(F)n1` (stereo not drawn) [Example 1.3.83, N-(3-chloro-4-(1-oxo-3-thioxohexahydroimidazo[1,5-a]pyridin-2(3H)-yl)phenyl)-6-fluoropicolinamide] and `O=C(Nc1ccc(N2C(=O)C3CCCCN3C2=S)c(Cl)c1)c1ccccn1` (stereo not drawn) [Example 1.3.10] are within 1.5-fold of each other in EC50: 354 nM for the first, 367 nM for the second.

Compared with `O=C(Nc1ccc(N2C(=O)C3CCCCN3C2=S)c(Cl)c1)c1ncccc1F` (stereo not drawn) [Example 1.3.84, N-(3-chloro-4-(1-oxo-3-thioxohexahydroimidazo[1,5-a]pyridin-2(3H)-yl)phenyl)-3-fluoropicolinamide], `O=C(Nc1ccc(N2C(=O)C3CCCCN3C2=S)c(Cl)c1)c1cscn1` (stereo not drawn) [Example 1.3.80, N-(3-chloro-4-(1-oxo-3-thioxohexahydroimidazo[1,5-a]pyridin-2(3H)-yl)phenyl)thiazole-4-carboxamide] is 2-fold higher in EC50: 993 nM for the first, 1970 nM for the second.

First: O=C(Nc1ccc(N2C(=O)N[C@@H](c3ccccc3)C2=O)c(Cl)c1)c1ccccn1 [Example 1.3.56, (S)-N-(3-chloro-4-(2,5-dioxo-4-phenylimidazolidin-1-yl)phenyl)picolinamide]
Second: O=C(Nc1ccc(N2C(=O)NC3(CCC3)C2=O)c(Cl)c1)c1ccccn1 [Example 1.3.14, N-(3-chloro-4-(6,8-dioxo-5,7-diazaspiro[3.4]octan-7-yl)phenyl)picolinamide]
The EC50 of the first is 3.4-fold lower: 380 nM for the first, 1280 nM for the second.

`O=C(Nc1ccc(N2C(=O)C3CCCCN3C2=O)c(Cl)c1)c1ccc(Cl)o1` (stereo not drawn) [Example 1.3.8, 5-Chloro-N-(3-chloro-4-(1,3-dioxotetrahydroimidazo[1,5-a]pyridin-2(1H,3H,5H)-yl)phenyl)furan-2-carboxamide] and `O=C(Nc1ccc(N2C(=O)C3COCCN3C2=O)c(Cl)c1)c1ccc(Cl)o1` (stereo not drawn) [Example 1.3.28, 5-Chloro-N-(3-chloro-4-(1,3-dioxodihydro-1H-imidazo[5,1-c][1,4]oxazin-2(3H,8H,8aH)-yl)phenyl)furan-2-carboxamide] are within 1.5-fold of each other in EC50: 6200 nM for the first, 8770 nM for the second.

Compared with `O=C(Nc1ccc(N2C(=O)NC3(CCCCC3)C2=O)c(C(F)(F)F)c1)c1ccco1` [Example 1.3.55, N-(4-(2,4-dioxo-1,3-diazaspiro[4.5]decan-3-yl)-3-(trifluoromethyl)phenyl)furan-2-carboxamide], `O=C(Nc1ccc(N2C(=O)NC3(CCCCCC3)C2=O)c(Cl)c1)c1ccccn1` [Example 1.3.15, N-(3-chloro-4-(2,4-dioxo-1,3-diazaspiro[4.6]undecan-3-yl)phenyl)picolinamide] is 19-fold lower in EC50: 4120 nM for the first, 222 nM for the second. The second is the more potent here.

Going from `CC(C)(C)C(=O)N1CCN2C(=O)N(c3ccc(NC(=O)c4ccccn4)cc3Cl)C(=O)C2C1` (stereo not drawn) [Example 1.3.73, N-(3-chloro-4-(1,3-dioxo-7-pivaloylhexahydroimidazo[1,5-a]pyrazin-2(3H)-yl)phenyl)picolinamide] to `O=C(Nc1ccc(N2C(=O)C3CN(C4CCCCC4)CCN3C2=O)c(Cl)c1)c1ccccn1` (stereo not drawn) [Example 1.3.71, N-(3-chloro-4-(7-cyclohexyl-1,3-dioxohexahydroimidazo[1,5-a]pyrazin-2(3H)-yl)phenyl)picolinamide], the EC50 rises from 1070 nM to 2230 nM (2.1-fold). The first is the more potent here.

Compared with `COc1cc(NC(=O)c2ccccn2)ccc1N1C(=O)N[C@@](C)(Cc2ccc(F)cc2)C1=O` [Example 1.3.63, (S)-N-(4-(4-(4-fluorobenzyl)-4-methyl-2,5-dioxoimidazolidin-1-yl)-3-methoxyphenyl)picolinamide], `COc1cc(NC(=O)c2ccccn2)ccc1N1C(=O)C2CCCCN2C1=O` (stereo not drawn) [Example 1.3.1, N-(4-(1,3-dioxotetrahydroimidazo[1,5-a]pyridin-2(1H,3H,5H)-yl)-3-methoxyphenyl)picolinamide] is 2.6-fold higher in EC50: 1040 nM for the first, 2700 nM for the second. The first is the more potent here.

Going from `O=C(Nc1ccc(N2C(=O)C3CCCCN3C2=O)cc1)c1ccccn1` (stereo not drawn) [Example 1.3.3, N-(4-(1,3-dioxotetrahydroimidazo[1,5-a]pyridin-2(1H,3H,5H)-yl)phenyl)picolinamide] to `O=C(Nc1ccc(N2C(=O)NC(C3CCCCC3)C2=O)c(Cl)c1)c1ccccn1` (stereo not drawn) [Example 1.3.70, N-(3-chloro-4-(4-cyclohexyl-2,5-dioxoimidazolidin-1-yl)phenyl)picolinamide], the EC50 falls from 3120 nM to 743 nM (4.2-fold). The second is the more potent here.

Compared with `O=C(Nc1ccc(N2C(=O)C3COCCN3C2=S)c(Cl)c1)c1cnccn1` (stereo not drawn) [Example 1.3.31, N-(3-Chloro-4-(1-oxo-3-thioxodihydro-1H-imidazo[5,1-c][1,4]oxazin-2(3H,8H,8aH)-yl)phenyl)pyrazine-2-carboxamide], `O=C(Nc1ccc(N2C(=O)C3CSCCN3C2=O)c(Cl)c1)c1cccc(F)n1` (stereo not drawn) [Example 1.3.42, N-(3-chloro-4-(1,3-dioxodihydro-1H-imidazo[5,1-c][1,4]thiazin-2(3H,8H,8aH)-yl)phenyl)-6-fluoropicolinamide] is 3-fold lower in EC50: 3560 nM for the first, 1170 nM for the second.
